Assay results taken from patent US8658570B2, “Use of anthranilamide derivatives for controlling insects and spider mites by drenching, soil mixing, furrow treatment, drip application, soil, stem or flower injection, in hydroponic systems, by planting hole treatment or dip application, floating or seedbox application or by treating seed, and …” (Bayer Cropscience AG, priority 2010, dated 2014).

How the values were obtained:
Assay type in all cases: in vivo
[1] = system: Plutella xylostella; experiment: Plutella xylostella test on Savoy cabbage; drench application; details: soil, 168 h, mortality 7 days after infestation, read-out: % Activity (according to Abbott); for pest or weed control at 0.5 mg/plant: 0.5 mg of ai/plant; for pest or weed control at 1 mg/plant: 1 mg of ai/plant
Experimental: Plutella xylostella test on Savoy Cabbage; Drench Application
(§1) • Solvent: 4 parts by weight of acetone • Emulsifier: 1 part by weight of alkylaryl polyglycol ether
(§2) To produce a suitable preparation of active compound, 1 part by weight of active compound is mixed with the stated amounts of solvent and emulsifier, and the concentrate is diluted with water to the desired concentration. Savoy cabbage (Brassica oleracea) is watered with a solution of the product in question (volume of water: 60 ml/plant). The stated concentration refers to the amount of active compound per plant. After about 1 week, the treated plants are infested with larvae of the diamondback moth (Plutella xylostella). After 1 week, the activity in % is determined. 100% means that all caterpillars have been killed; 0% means that none of the caterpillars have been killed.

[2] = system: Heliothis armigera; experiment: Heliothis armigera test on cotton; drench application; details: Helicoverpa armigera, soil, 168 h, mortality 7 days after infestation, read-out: % Activity (according to Abbott); for pest or weed control at 0.5 mg/plant: 0.5 mg of ai/plant; for pest or weed control at 1 mg/plant: 1 mg of ai/plant
Experimental: Heliothis armigera Test on Cotton; Drench Application
as §1
as §2, with “Cotton plants (Gossypium hirsuium) are” for “Savoy cabbage (Brassica oleracea) is”, “50” for “60”, “cotton bollworm (Heliothis armigera).” for “diamondback moth (Plutella xylostella).”

[3] = system: Diabrotica balteata; experiment: Diabrotica balteata test on maize; drench application; details: soil, 192 h, mortality 8 days after treatment, mixtures about 95%/5%, read-out: % Activity (according to Abbott)
Experimental: Diabrotica balteata Test on Maize; Drench Application • Solvent: 7 parts by weight of dimethylformamide • Emulsifier: 1 part by weight of alkylaryl polyglycol ether To produce a suitable preparation of active compound, 1 part by weight of active compound is mixed with the stated amounts of solvent and emulsifier, and the concentrate is diluted with water to the desired concentration. Maize plants (Zea mays) are watered with the solution of the product in question and infested with larvae of the banded cucumber beetle (Diabrotica baltenta). After 8 days, the activity in % is determined. 100% means that all caterpillars have been killed; 0% means that none of the caterpillars have been killed.

[4] = system: Spodoptera frugiperda; experiment: Spodoptera frugiperda test on maize; drench application (Example B); details: soil, 168 h, mortality 7 days after infestation, read-out: % Activity (according to Abbott); for pest or weed control at 0.5 mg/plant: 0.5 mg of ai/plant; for pest or weed control at 1 mg/plant: 1 mg of ai/plant
Experimental: Spodoptera frugiperda Test on Maize; Drench Application
as §1
as §2, with “Maize plants (Zea mays) are” for “Savoy cabbage (Brassica oleracea) is”, “50” for “60”, “with” for “with larvae of”, “armyworm (Spodoptera frugiperda).” for “diamondback moth (Plutella xylostella).”

[5] = system: Myzus persicae; experiment: Myzus persicae test on Savoy cabbage; drench application; details: soil, 240 h, mortality 10 days after treatment, mixtures about 85%/15% and 84%/15%, read-out: % Activity (according to Abbott)
Experimental: Myzus persicae Test on Savoy Cabbage; Drench Application • Solvent: 7 parts by weight of dimethylformamide • Emulsifier: part by weight of alkylaryl polyglycol ether To produce a suitable preparation of active compound, 1 part by weight of active compound is mixed with the stated amounts of solvent and emulsifier, and the concentrate is diluted with water to the desired concentration. Savoy cabbage (Brassica oleracea) heavily infested by the green peach aphid (Myzus persicae) is watered with a solution of the product of the desired concentration. After 10 days, the activity in % is determined. 100% means that all of the aphids have been killed: 0% means that none of the aphids have been killed.

[6] = system: Spodoptera frugiperda; experiment: Spodoptera frugiperda test on maize; drench application (Example B-1); details: soil, 336 h, mortality 14 days after treatment, read-out: % Activity (according to Abbott)
Experimental: Spodoptera fugiperda Test on Maize; […] Application • Solvent: 7 parts by weight of dimethylformamide • Emulsifier: 1 part by weight of alkylaryl polyglycol ether To produce a suitable preparation of active compound, 1 part by weight of active compound is mixed with the stated amounts of solvent and emulsifier, and the concentrate is diluted with water to the desired concentration. Maize plants (Zea mays) are watered with a solution of the product in question and infested with the armyworm (Spadoptera frugiperda). After 14 days, the activity in % is determined. 100% means that all caterpillars have been killed; 0% means that none of the caterpillars have been killed.

Compound | pest or weed control at 0.5 mg/plant [1] [%] | pest or weed control at 0.5 mg/plant [2] [%] | inhibition at 20 ppm [3] [%] | pest or weed control at 0.5 mg/plant [4] [%] | pest or weed control at 1 mg/plant [1] [%] | pest or weed control at 1 mg/plant [2] [%] | pest or weed control at 1 mg/plant [4] [%] | inhibition at 20 ppm [5] [%] | inhibition at 20 ppm [6] [%]
CNC(=O)c1cc(I)cc(C)c1NC(=O)c1cc(Cn2nnc(C(F)(F)F)n2)nn1-c1ncccc1Cl [(I-1-69)] | 100 | 100 | 100 | 85 |  |  |  |  | 
Cc1cc(C#N)cc(C(=O)NC(C)(C)C)c1NC(=O)c1cc(Cn2nnc(C(F)(F)F)n2)nn1-c1ncccc1Cl [(I-1-63)] | 100 | 100 |  | 100 |  |  |  |  | 
Cc1cc(Br)cc(C(=O)NCC#N)c1NC(=O)c1cc(Cn2nnc(C(F)(F)F)n2)nn1-c1ncccc1Cl [(I-1-68)] | 100 | 100 | 100 | 100 |  |  |  |  | 
Cc1cc(C#N)cc(C(=O)NC(C)C)c1NC(=O)c1cc(Cn2nnc(C(F)(F)F)n2)nn1-c1ncccc1Br [(I-1-67)] |  |  |  |  | 100 | 100 | 90 |  | 
Cc1cc(C#N)cc(C(=O)NC(C)(C)C)c1NC(=O)c1cc(Cn2nnc(C(F)(F)F)n2)nn1-c1ncccc1F [(I-1-70)] |  |  |  |  | 100 | 95 | 90 |  | 
CCNC(=O)c1cc(C#N)cc(C)c1NC(=O)c1cc(Cn2nnc(C(F)(F)F)n2)nn1-c1ncccc1Cl [(I-1-3)] | 100 | 100 |  | 100 |  |  |  | 90 | 
CNC(=O)c1cc(F)cc(C)c1NC(=O)c1cc(Cn2nnc(C(F)(F)F)n2)nn1-c1ncccc1Cl [(I-1-61)] | 100 | 100 |  | 100 |  |  |  |  | 
CNC(=O)c1cc(C#N)cc(C)c1NC(=O)c1cc(Cn2nnc(C(F)(F)F)n2)nn1-c1ncccc1Cl [(I-1-1)] |  |  | 100 |  |  |  |  |  | 100
Cc1cc(C#N)cc(C(=O)NC(C)(C)C)c1NC(=O)c1cc(Cn2nnc(C(F)(F)F)n2)nn1-c1ncccc1Cl [(I-1-2)] |  |  |  |  |  |  |  |  | 100
Cc1cc(C#N)cc(C(=O)NC(C)(C)C)c1NC(=O)c1cc(Cn2nnc(C(F)(F)F)n2)nn1-c1ncccc1Br [(I-1-65)] |  |  |  |  | 100 | 100 | 95 |  | 
CNC(=O)c1cc(C#N)cc(C)c1NC(=O)c1cc(Cn2nnc(C(F)(F)F)n2)nn1-c1ncccc1Br [(I-1-62)] | 100 | 95 | 100 | 98 |  |  |  | 80 | 
CNC(=O)c1cc(Br)cc(C)c1NC(=O)c1cc(Cn2nnc(C(F)(F)F)n2)nn1-c1ncccc1Cl [(I-1-64)] | 100 | 100 |  | 100 |  |  |  |  | 
Cc1cc(C#N)cc(C(=O)NC(C)(C)C)c1NC(=O)c1cc(Cn2nnc(C3CC3)n2)nn1-c1ncccc1Cl [(I-1-71)] | 90 |  |  | 85 |  |  |  |  | 
CNC(=O)c1cc(C#N)cc(C)c1NC(=O)c1cc(Cn2nnc(C(F)(F)F)n2)nn1-c1c(F)cccc1Cl [(I-1-66)] |  |  | 90 |  | 90 | 100 | 95 | 90 | 
